Test results published in patent publication US20140193463A1, “PEPTIDE FOR INHIBITING DIPEPTIDYL-PEPTIDASE IV” (CHINA MEDICAL UNIVERSITY, priority 2013, published 2014).
Residues, ends and D or L forms follow the SMILES beside them.

How the values were obtained:
[1] = target: T1, Dipeptidyl-peptidase IV (D7052, from porcine kidney) (Sus scrofa, UniProt P22411); assay: Determination of DPP-IV-inhibitory activity (Gly-Pro-p-nitroanilide substrate, absorbance 405 nm); assay type: biochemical; conditions: synthetic peptides and diprotin A, present example (FIG. 4A-4C)
T1 construct: Dipeptidyl-peptidase IV (D7052, from porcine kidney); purchased Sigma-Aldrich D7052; host or cells: porcine kidney (tissue-derived)
Experimental: Atlantic salmon (Salmo salar) fish skins, processing byproducts recovered from fresh skin-off fillets, were supplied by Albion Fisheries Ltd. (Vancouver, BC, Canada). The fish skins were transferred on ice, vacuum packed, and stored at −25° C. until use. Three food-grade proteolytic enzymes were donated by Neova Technologies Inc. (Abbotsford, BC, Canada). Alcalase 2.4 L FG (from Bacillus licheniformis, 2.4 AU/g) and Flavourzyme 1000 L (from Aspergillus oryzae, 1000 LAPU/g) were products from Novo-zymes North America Inc. (Salem, N.C., […]), whereas bromelain (from pineapple stem, 2000 GDU/g) was manufactured by Ultra Bio-Logics Inc. (Montreal, QC, Canada), Dipeptidyl-peptidase IV (D7052, from porcine kidney), Gly-Prop-nitroanilide hydrochloride, trichloroacetic acid (TCA), L-leucine, and diprotin A were purchased from Sigma-Aldrich (St. Louis, Mo.). Trinitrobenzenesulfonic acid (TNBS) was obtained from Fluka Biochemika Oakville ON, Canada). Other chemicals and reagents used were of analytical grade and commercially available,
DPP-IV activity determination was performed in 96-well microplates. In order to measure an increment in absorbance at 405 nm, Gly-Pro-p-nitroanilide is used as a DPP-IV substrate. […] The absorbance of the resulting solution was measured at 405 nm with a microplate reader (iEMS reader MF; Labsystems, Helsinki, Finland).

[2] = target: DPP-IV (Homo sapiens, UniProt P27487); conditions: previous studies; read-out: IC50 values against DPP-IV; cited from earlier work
DPP-IV, sequence (P27487 whole entry, species assumed): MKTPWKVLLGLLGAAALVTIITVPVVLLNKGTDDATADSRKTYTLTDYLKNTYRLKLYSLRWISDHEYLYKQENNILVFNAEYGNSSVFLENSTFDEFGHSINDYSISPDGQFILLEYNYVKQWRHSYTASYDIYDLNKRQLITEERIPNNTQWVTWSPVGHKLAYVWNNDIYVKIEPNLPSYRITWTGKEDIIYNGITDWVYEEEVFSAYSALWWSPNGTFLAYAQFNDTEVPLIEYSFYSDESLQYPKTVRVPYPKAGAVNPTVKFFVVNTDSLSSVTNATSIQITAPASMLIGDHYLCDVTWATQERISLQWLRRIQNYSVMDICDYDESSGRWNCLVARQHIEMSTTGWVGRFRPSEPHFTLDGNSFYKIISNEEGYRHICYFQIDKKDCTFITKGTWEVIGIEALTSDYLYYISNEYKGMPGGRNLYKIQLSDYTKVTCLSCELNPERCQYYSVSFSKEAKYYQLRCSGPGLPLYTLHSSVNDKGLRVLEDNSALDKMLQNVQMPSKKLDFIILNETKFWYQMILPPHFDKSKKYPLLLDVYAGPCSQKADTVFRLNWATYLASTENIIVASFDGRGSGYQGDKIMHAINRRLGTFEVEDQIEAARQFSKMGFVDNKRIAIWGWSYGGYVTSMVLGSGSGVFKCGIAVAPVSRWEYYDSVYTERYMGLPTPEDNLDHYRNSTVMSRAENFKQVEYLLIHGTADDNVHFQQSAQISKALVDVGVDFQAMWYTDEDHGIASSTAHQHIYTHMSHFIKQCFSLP

T1 sequence (P22411 whole entry): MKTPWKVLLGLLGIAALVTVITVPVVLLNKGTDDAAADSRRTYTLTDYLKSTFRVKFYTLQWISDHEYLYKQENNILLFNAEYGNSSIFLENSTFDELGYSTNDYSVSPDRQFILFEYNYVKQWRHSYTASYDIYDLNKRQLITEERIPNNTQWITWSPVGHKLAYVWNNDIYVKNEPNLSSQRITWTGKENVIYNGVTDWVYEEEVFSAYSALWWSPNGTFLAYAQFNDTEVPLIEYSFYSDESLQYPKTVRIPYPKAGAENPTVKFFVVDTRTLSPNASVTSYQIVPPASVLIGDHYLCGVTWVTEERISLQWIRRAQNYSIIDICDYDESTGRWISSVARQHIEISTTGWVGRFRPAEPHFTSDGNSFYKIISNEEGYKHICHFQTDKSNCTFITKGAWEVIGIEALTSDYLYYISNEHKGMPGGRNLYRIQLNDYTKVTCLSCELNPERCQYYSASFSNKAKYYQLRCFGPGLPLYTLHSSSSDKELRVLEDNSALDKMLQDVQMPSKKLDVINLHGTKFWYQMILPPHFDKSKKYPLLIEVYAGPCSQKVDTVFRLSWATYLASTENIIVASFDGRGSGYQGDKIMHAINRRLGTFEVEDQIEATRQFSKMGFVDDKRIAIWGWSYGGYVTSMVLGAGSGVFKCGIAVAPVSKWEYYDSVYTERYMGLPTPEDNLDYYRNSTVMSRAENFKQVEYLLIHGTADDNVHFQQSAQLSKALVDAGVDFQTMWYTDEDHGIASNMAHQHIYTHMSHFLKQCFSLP

Row | IC50 [1] [µM] | Compound | IC50 [2] [µM]
1 | 49.6 | C[C@H](NC(=O)[C@@H]1CCCN1C(=O)CN)C(=O)N[C@@H](CCC(=O)O)C(=O)O [Gly-Pro-Ala-Glu] (H-GPAE-OH; N-terminus and C-terminus assumed) | –
2 | 41.9 | C[C@H](NC(=O)CNC(=O)[C@@H]1CCCN1C(=O)CN)C(=O)O [Gly-Pro-Gly-Ala] (H-GPGA-OH; N-terminus and C-terminus assumed) | –
3 | – | Ile-Pro-Ala [peptide prepared from β-lactoglobulin] | 49
4 | – | VAGTWY [Val-Ala-Gly-Thr-Trp-Tyr, peptide prepared from β-lactoglobulin] | 174
